# According to ChEMBL document CHEMBL1136253 (Bioorg Med Chem Lett, 2003):
# Molecular target: T1, Corticotropin-releasing factor receptor 1 (Homo sapiens, UniProt P34998)
# T1 sequence (P34998 whole entry): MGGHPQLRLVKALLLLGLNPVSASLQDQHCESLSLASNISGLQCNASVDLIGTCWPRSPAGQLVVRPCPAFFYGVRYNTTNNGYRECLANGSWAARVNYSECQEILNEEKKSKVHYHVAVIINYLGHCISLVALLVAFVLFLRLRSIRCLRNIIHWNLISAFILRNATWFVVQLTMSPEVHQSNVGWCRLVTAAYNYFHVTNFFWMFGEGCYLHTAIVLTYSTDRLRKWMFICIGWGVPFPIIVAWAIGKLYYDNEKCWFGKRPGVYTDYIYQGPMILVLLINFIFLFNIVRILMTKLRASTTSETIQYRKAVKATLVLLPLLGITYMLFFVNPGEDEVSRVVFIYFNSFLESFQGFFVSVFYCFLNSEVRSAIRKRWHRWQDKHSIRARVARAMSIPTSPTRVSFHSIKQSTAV
# Test: Inhibition of Corticotropin releasing factor receptor 1-stimulated cAMP production
# Type: functional
row,IC50 [nM],SMILES
1,15,CCN(CCOC)c1cc(C)nc2c(-c3ccc(Cl)cc3Cl)nn(C)c12
2,5,CCCCN(CCCC)c1cc(C)nc2c(-c3ccc(Cl)cc3Cl)nn(C)c12
3,36,CCCN(CCOC)c1cc(C)nc2c(-c3ccc(Cl)cc3Cl)nn(C)c12
4,38,COCCN(CCOC)c1cc(C)nc2c(-c3ccc(Cl)cc3Cl)nn(C)c12
5,18,CCCN(CCO)c1cc(C)nc2c(-c3ccc(Cl)cc3Cl)nn(C)c12
6,3,CCCCN(CC1CC1)c1cc(C)nc2c(-c3ccc(Cl)cc3Cl)nn(C)c12

# Molecular target: T1, Corticotropin-releasing factor receptor 1
# Test: Binding affinity towards Corticotropin releasing factor receptor 1 was measured through displacement of [125I]sauvagine expressed in HEK293 cells
# Type: cell-based
row,SMILES,Ki [nM]
1,CCCCCCN(CCOC)c1cc(C)nc2c(-c3ccc(Cl)cc3Cl)nn(C)c12,4
2,CCCC(CO)Nc1cc(C)nc2c(-c3ccc(Cl)cc3Cl)nn(C)c12 (stereo unspecified),62
3,CCCCN(CCCC)c1cc(C)nc2c(-c3c(C)cc(C)cc3C)nn(C)c12,5.1
4,CCCCN(CCCC)c1cc(C)nc2c(-c3ccc(Cl)cc3)nn(C)c12,340
5,Cc1cc(N(CC(C)C)CC2CC2)c2c(n1)c(-c1ccc(Cl)cc1Cl)nn2C,3.7
6,CCCCN(CCCC)c1cc(C)nc2c(-c3ccc(C)cc3Cl)nn(C)c12,2.8
7,CCCCN(CCCC)c1cc(C)nc2c(-c3ccc(OC)cc3Cl)nn(C)c12,4.8
8,CCCCCCN(CC1CC1)c1cc(C)nc2c(-c3ccc(Cl)cc3Cl)nn(C)c12,1
9,CCCCN(CCc1ccccn1)c1cc(C)nc2c(-c3ccc(Cl)cc3Cl)nn(C)c12,13
10,CCCCN(CC1CCCN1C)c1cc(C)nc2c(-c3ccc(Cl)cc3Cl)nn(C)c12 (stereo unspecified),380
11,CCCCN(CCCC)c1cc(C)nc2c(-c3c(C)cc(C)cc3Cl)nn(C)c12,2.1
12,Cc1cc(NCc2ccc(O)cc2)c2c(n1)c(-c1ccc(Cl)cc1Cl)nn2C,> 10000
13,CCCN(Cc1ccc(O)cc1)c1cc(C)nc2c(-c3ccc(Cl)cc3Cl)nn(C)c12,13
14,COCCN(CCOC)c1cc(C)nc2c(-c3ccc(Cl)cc3Cl)nn(C)c12,8.2
15,CCCCCN(CC1CC1)c1cc(C)nc2c(-c3ccc(Cl)cc3Cl)nn(C)c12,1.5
16,CCCCN(CC1CCCO1)c1cc(C)nc2c(-c3ccc(Cl)cc3Cl)nn(C)c12 (stereo unspecified),11.2
17,CCCCN(CCc1ccncc1)c1cc(C)nc2c(-c3ccc(Cl)cc3Cl)nn(C)c12,34
18,CCCCN(Cc1ccncc1)c1cc(C)nc2c(-c3ccc(Cl)cc3Cl)nn(C)c12,68
19,COCCN(CC(C)C)c1cc(C)nc2c(-c3ccc(Cl)cc3Cl)nn(C)c12,10.5

# More lines, now with the values ahead:
row,Ki [nM],SMILES
1,32,COCCN(C)c1cc(C)nc2c(-c3ccc(Cl)cc3Cl)nn(C)c12
2,4.1,CCCN(CC)c1cc(C)nc2c(-c3ccc(Cl)cc3Cl)nn(C)c12
3,9.8,CCCN(CCCOC)c1cc(C)nc2c(-c3ccc(Cl)cc3Cl)nn(C)c12
4,1.4,CCCCN(CCSC)c1cc(C)nc2c(-c3ccc(Cl)cc3Cl)nn(C)c12
5,170,CCCCNc1cc(C)nc2c(-c3ccc(Cl)cc3Cl)nn(C)c12
6,3.2,CCN(CCOC)c1cc(C)nc2c(-c3ccc(Cl)cc3Cl)nn(C)c12
7,6.7,CCCCCN(CCOC)c1cc(C)nc2c(-c3ccc(Cl)cc3Cl)nn(C)c12
8,1.3,CCCCCN(CC)c1cc(C)nc2c(-c3ccc(Cl)cc3Cl)nn(C)c12
9,0.9,CCCCCN(CCCC)c1cc(C)nc2c(-c3ccc(Cl)cc3Cl)nn(C)c12
10,18,CCCCN(CCCOC)c1cc(C)nc2c(-c3ccc(Cl)cc3Cl)nn(C)c12
11,12.5,CCN(CCCOC)c1cc(C)nc2c(-c3ccc(Cl)cc3Cl)nn(C)c12
12,24,CCCN(C)c1cc(C)nc2c(-c3ccc(Cl)cc3Cl)nn(C)c12
13,5.1,CCCN(CCOC)c1cc(C)nc2c(-c3ccc(Cl)cc3Cl)nn(C)c12
14,1.2,CCCCCN(CCC)c1cc(C)nc2c(-c3ccc(Cl)cc3Cl)nn(C)c12
15,10.4,CCCCN(CCOC)c1cc(C)nc2c(-c3ccc(Cl)cc3Cl)nn(C)c12
16,9.7,COCCN(c1cc(C)nc2c(-c3ccc(Cl)cc3Cl)nn(C)c12)C(C)C
17,7,CCCCN(c1cc(C)nc2c(-c3ccc(Cl)cc3Cl)nn(C)c12)C(CC)CC
18,4.4,CCCN(CCO)c1cc(C)nc2c(-c3ccc(Cl)cc3Cl)nn(C)c12
19,4.4,CCN(CC1CC1)c1cc(C)nc2c(-c3ccc(Cl)cc3Cl)nn(C)c12
20,1.3,CCCCN(CC1CC1)c1cc(C)nc2c(-c3ccc(Cl)cc3Cl)nn(C)c12

# Molecular target: T1, Corticotropin-releasing factor receptor 1
# Test: Inhibition of (Corticotropin-Releasing Factor Receptor) CRF-stimulated cAMP production
# Type: functional
row,IC50 [nM],SMILES
1,16,CCCN(CC1CC1)c1cc(C)nc2c(-c3ccc(Cl)cc3Cl)nn(C)c12
